Assay results: patent US6281214A, “Biphenyl derivatives” (Eisai Co., Ltd, priority 1994, dated 2001)
Read-outs that look alike come from different tables or passages of the source.

What was measured:
Design in all cases: species or system SD rats
dopamine D2 receptor = molecular target: T1, dopamine D2 receptor (Rattus norvegicus, UniProt P61169); assay: dopamine D2 receptor binding test ([3H] Spiperone Binding Test); settings: 1 nM [3H] Spiperone, rat corpus striatum, room temperature, 60 minutes
T1 construct: the receptor fraction prepared from the corpus striatum was molten and suspended; from tissue; host or cells: corpus striatum of SD rats (membrane fraction)
Protocol: (§1) The compounds of the present invention were subjected to each of serotonin S2 receptor binding test, dopamine D2 receptor binding test and adrenergic α1 receptor binding test.
(§2) The following reagents were used in this test.
(§3) These reagents and samples were each dissolved in 10% ethanol before use. Among them, water-insoluble compounds were each dissolved in ethanol and the obtained solution was diluted with distilled water to an ethanol concentration of 10%. Further, Methylsergide maleate was used in a state dissolved in distilled water.
(§4) SD rats aged 6 to 8 weeks were used.
(§5) SD rats were each slaughtered with a guillotine to extirpate its cerebrum. The cortex and corpus striatum were separated from the cerebrum. The former was used in serotonin S2 receptor binding test and adrenergic α1, receptor binding test, while the latter was used in dopamine D2 receptor binding test.
On the other hand, the corpus striatum was homogenized in a 0.32 M sucrose solution in an amount ten times the wet weight of the corpus striatum by the use of a teflon glass homogenizer and the obtained mixture was centrifuged at 1,000×G for 20 minutes. The obtained supernatant was centrifuged at 10,000×G for 20 minutes. The obtained sediments were suspended together in 50 mM Tris hydrochloride (pH 7.4) in an amount ten times the initial wet weight of the corpus striatum by the use of a histocothrom, and the obtained suspension was centrifuged at 10,000×G for 20 minutes. This operation was repeated thrice. The resulting sediment was suspended in 50 mM Krebs-Tris (pH 7.4) in an amount 100 times the initial wet weight of the corpus striatum by the use of a histocothrom. The obtained suspension was used as a receptor fraction. This receptor fraction was stored at -80° C. until use.
(§6) Each IC50 value was calculated by the probit method and each Ki value was determined by the following formula: [formula]
(§7) In the above formula, C represents the concentration of radioligand, and Kd represents the affinity of radioligand for the receptor as determined by the Scatchard analysis.
5. [^3 H] Spiperone Binding Test
(§8) This test was conducted in the same manner as that of the binding test of [^3 H] Ketanserin except that the receptor fraction prepared from the corpus striatum was molten and suspended with a histocothrom, and the obtained suspension was incubated together with 1 nM-[^3 H], Spiperone at room temperature for 60 minutes and that the binding detected in the presence of 10 μl of Spiperone was regarded as nonspecific binding.

adrenergic α1 receptor = adrenergic α1 receptor binding test ([3H] Prazosin Binding Test); settings: 1 nM [3H] Prazosin, rat cortex, room temperature, 60 minutes
Protocol: as §1, §2, §3, §4, §5
(§9) The cortex was homogenized in a 0.32 M sucrose solution in an amount ten times the wet weight of the cortex by the use of a teflon glass homogenizer and the resulting mixture was centrifuged at 10,000×G for 20 minutes. The obtained sediment was suspended in 50 mM Tris hydrochloride (pH 7.4) in an amount ten times the initial wet weight of the cortex by the use of a histocothrom, and the obtained suspension was centrifuged at 10,000×G for 20 minutes. This operation was repeated twice. The obtained sediment was suspended in 50 mM Tris hydrochloride (pH 7.4) in an amount 20 times the initial wet weight of the cortex by the use of a histocothrom. The suspension thus prepared was used as a receptor fraction. This receptor fraction was stored at -80° C. until use.
as §6, §7
6. [^3 H] Prazosin Binding Test
as §8, with “cortex” for “corpus striatum”, “H] Prazosin” for “H], Spiperone”, “Phentolamine” for “Spiperone”

serotonin S2 receptor = molecular target: T2, serotonin S2 receptor (Rattus norvegicus, UniProt P14842); assay: serotonin S2 receptor binding test ([3H] Ketanserin Binding Test); settings: 1 nM [3H] Ketanserin, rat cortex, 37° C., 15 minutes
T2 construct: The receptor fraction prepared from the cortex was molten and suspended; from tissue; host or cells: cerebral cortex of SD rats (membrane fraction)
Protocol: as §1, §2, §3, §4, §5, §9
4. [^3 ] Ketanserin Binding Test
The receptor fraction prepared from the cortex was molten and suspended by the use of a histocothrom. The resulting suspension was incubated together with 1 nM-[^3 H] Ketanserin at 37° C. for 15 minutes. The resulting reaction system was filtered through a Whatman GF/B glass filter with an MR-30R type cell harvester mfd. by Blandel. The resulting filter was washed twice with 5 ml of 50 mM Tris hydrochloride (ph 7.4) cooled with ice and the radioactivity of the Ketanserin bound the receptor was determined by the use of a liquid scintillation counter with 5 ml of ACS II. The binding detected in the presence of […] of Methylsergide was regarded as nonspecific binding.
as §6, §7

[1] = read-out: Ki value, dopamine D2 receptor

T2 sequence (P14842 whole entry): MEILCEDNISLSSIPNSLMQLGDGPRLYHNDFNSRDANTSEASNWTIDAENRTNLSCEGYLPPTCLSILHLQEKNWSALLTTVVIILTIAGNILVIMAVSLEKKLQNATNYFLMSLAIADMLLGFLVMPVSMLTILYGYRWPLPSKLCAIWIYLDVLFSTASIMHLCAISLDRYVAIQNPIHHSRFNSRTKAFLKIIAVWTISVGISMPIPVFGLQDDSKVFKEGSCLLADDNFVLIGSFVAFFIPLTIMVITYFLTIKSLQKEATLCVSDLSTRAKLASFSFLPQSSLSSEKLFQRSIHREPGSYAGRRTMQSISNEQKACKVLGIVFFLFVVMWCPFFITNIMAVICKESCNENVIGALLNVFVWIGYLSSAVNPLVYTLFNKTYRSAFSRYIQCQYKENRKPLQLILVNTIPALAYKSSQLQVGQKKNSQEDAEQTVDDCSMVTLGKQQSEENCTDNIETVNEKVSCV
T1 sequence (P61169 whole entry): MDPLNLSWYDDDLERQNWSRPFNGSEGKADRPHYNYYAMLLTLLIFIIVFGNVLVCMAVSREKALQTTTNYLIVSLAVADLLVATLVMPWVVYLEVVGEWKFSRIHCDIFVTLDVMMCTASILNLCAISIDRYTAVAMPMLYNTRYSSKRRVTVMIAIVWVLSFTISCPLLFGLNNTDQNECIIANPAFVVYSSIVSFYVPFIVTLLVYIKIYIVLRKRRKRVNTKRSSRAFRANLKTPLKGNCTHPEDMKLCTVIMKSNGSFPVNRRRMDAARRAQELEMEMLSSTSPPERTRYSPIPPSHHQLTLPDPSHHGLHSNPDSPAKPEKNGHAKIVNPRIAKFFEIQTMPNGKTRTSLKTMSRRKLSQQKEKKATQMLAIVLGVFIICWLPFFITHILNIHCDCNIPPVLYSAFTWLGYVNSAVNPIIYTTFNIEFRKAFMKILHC

SMILES	Ki (dopamine D2 receptor; [1])	Ki (adrenergic α1 receptor)	Ki (serotonin S2 receptor)	Ki (dopamine D2 receptor; Ki value, dopamine D2 receptor)
CCCS(=O)(=O)Nc1cc(N2CCN(C)CC2)cc(-c2ccccc2C)c1Cl [Example 29, 1-Methyl-4-[3-(2-tolyl)-4-chloro-5-propanesulfonylamino]phenylpiperazine]	1.19 nM	50.1 nM	4.86 nM	–
CCCCS(=O)(=O)Nc1cc(N2CCN(C)CC2)cc(-c2ccccc2C)c1Cl [Example 30]	0.86 nM	92.5 nM	2.24 nM	–
CCN1CCN(c2cc(NS(=O)(=O)CC)c(Cl)c(-c3ccccc3Cl)c2)CC1 [Example 31, 1-Ethyl-4-[3-(2-chlorophenyl)-4-chloro-5-ethanesulfonylamino]phenylpiperazine]	0.69 nM	36.1 nM	12.4 nM	–
CCCS(=O)(=O)Nc1cc(N2CCN(CC)CC2)cc(-c2ccccc2Cl)c1Cl [Example 32, 1-Ethyl-4-[3-(2-chlorophenyl)-4-chloro-5-propanesulfonylamino]phenylpiperazine]	0.38 nM	19.5 nM	3.36 nM	–
CCCCS(=O)(=O)Nc1cc(N2CCN(CC)CC2)cc(-c2ccccc2Cl)c1Cl [Example 33, 1-Ethyl-4-[3-(2-chlorophenyl)-4-chloro-5-butanesulfonylamino]phenylpiperazine]	2.02 nM	86.9 nM	6.46 nM	–
CCS(=O)(=O)Nc1cc(N2CCN(C)CC2)cc(-c2ccccc2Cl)c1Cl [Example 34, 1-Methyl-4-[3-(2-chlorophenyl)-4-chloro-5-ethanesulfonylamino]phenylpiperazine]	0.37 nM	25.8 nM	7.77 nM	–
CCCS(=O)(=O)Nc1cc(N2CCN(C)CC2)cc(-c2ccccc2Cl)c1Cl [Example 35, 1-Methyl-4-[3-(2-chloropheyl)-4-chloro-5-propanesulfonylamino]phenylpiperazine]	0.5 nM	17 nM	3.37 nM	–
CCCCS(=O)(=O)Nc1cc(N2CCN(C)CC2)cc(-c2ccccc2Cl)c1Cl [Example 36, 1Methyl-4-[3-(2-chlorophenyl)-4-chloro-5-butanesulfonylamino]phenylpiperazine]	1.26 nM	25.3 nM	4.04 nM	–
CCN1CCN(c2cc(-c3ccc(F)cc3)c(OC)c(S(=O)(=O)CC)c2)CC1 [Example 40]	9.25 nM	> 1000 nM	3.64 nM	–
CCN1CCN(c2cc(CCl)c(OC)c(-c3ccccc3)c2)CC1 [Example 45, 1-Ethyl-4-(3-phenyl-4-methoxy-5-chloromelthy)phenylpiperazine]	–	183 nM	192 nM	26.9 nM
C=CCCC(F)c1cc(N2CCN(CC)CC2)cc(-c2ccccc2)c1OC (stereo not drawn) [Example 46, 1-Ethyl-4-{3-phenyl-4-methoxy-5-[1-fluoro-(4-pentenyl)]}phenylpiperazine]	9.78 nM	> 1000 nM	2.16 nM	–
CCCC(F)c1cc(N2CCN(CC)CC2)cc(-c2ccccc2)c1OC (stereo not drawn) [Example 47, 1-Ethyl-4-[3-phenyl-4-methoxy-5-(1-fluorobutyl)]phenylpiperazine]	12.9 nM	> 1000 nM	5.72 nM	–
CCCCC(F)c1cc(N2CCN(CC)CC2)cc(-c2ccccc2)c1OC (stereo not drawn) [Example 48, 1-Ethyl-4-[3-phenyl-4-methoxy-5-(1-fluoropentyl)]phenylpiperazine]	25.8 nM	> 1000 nM	4.32 nM	–
CCCC(F)c1cc(N2CCN(CC)CC2)cc(-c2ccccc2C)c1Cl (stereo not drawn) [Example 49, 1-Ethyl-4-[3-(2-tolyl)-4-chloro-5-(1-fluorobutyl)]phenylpiperazine]	6.09 nM	> 1000 nM	20.1 nM	–
CCCC(F)c1cc(N2CCN(CC)CC2)cc(-c2ccccc2C)c1F (stereo not drawn) [Example 50, 1-Ethyl-4-[3-(2-tolyl)-4-fluoro-5-(1-fluorobutyl)]phenylpiperazine]	9.14 nM	> 1000 nM	17.7 nM	–
CCN1CCN(c2cc(-c3ccccc3C)c(Cl)c(C(F)CC(C)C)c2)CC1 (stereo not drawn) [Example 51, 1-Ethyl-4-[3-(2-tolyl)-4-chloro-5-(1-fluoro-3-methylbutyl)]phenylpiperazine]	27.2 nM	> 1000 nM	164 nM	–
CCN1CCN(c2cc(-c3ccccc3C)c(Cl)c(C(C)F)c2)CC1 (stereo not drawn) [Example 52]	0.99 nM	> 1000 nM	21.6 nM	–
CCCC(F)c1cc(N2CCN(C)CC2)cc(-c2ccccc2C)c1Cl (stereo not drawn) [Example 53, 1-Methyl-4-[3-(2-tolyl)-4-chloro-5-(1-fluorobutyl)]phenylpiperazine]	6.73 nM	> 1000 nM	12.4 nM	–
CCCC(F)c1cc(N2CCN(CC)CC2)cc(-c2ccccc2Cl)c1Cl (stereo not drawn) [Example 54, 1-Ethyl-4-[3-(2-chlorophenyl)-4-chloro-5-(1-fluorobutyl)]phenylpiperazine]	6.06 nM	> 1000 nM	37.5 nM	–
CCN1CCN(c2cc(-c3ccccc3C)c(Cl)c(C(F)(F)CC)c2)CC1 [Example 55, 1-Ethyl-4-[3-(2-tolyl)-4-chloro-5-(1,1-difluoropropyl)]phenylpiperazine]	3.1 nM	> 1000 nM	113 nM	–
CCN1CCN(c2cc(-c3ccccc3)c(OC)c(-c3ccccc3)c2)CC1 [Example 56, 1-Ethyl-4-(3,5-diphenyl-4-methoxy)phenylpiperazine]	111 nM	503 nM	212 nM	–
CCN1CCN(c2ccc(OC)c(-c3ccccc3)c2)CC1 [Example 57, 1-Ethyl-4-(3-phenyl-4-methoxy)phenylpiperazine]	> 1000 nM	> 1000 nM	> 1000 nM	–
CCN1CCN(c2cc(-c3ccccc3)c(O)c(-c3ccccc3)c2)CC1 [Example 58, 1-Ethyl-4-(3,5-diphenyl-4-hydroxy)phenylpiperazine]	> 1000 nM	290 nM	> 1000 nM	–
CCCc1cc(N2CCN(CC)CC2)cc(-c2ccccc2)c1OC [Example 59, 1-Ethyl-4-(3-phenyl-4-methoxy-5-propyl)phenylpiperazine]	47 nM	301 nM	36.7 nM	–
CCN1CCN(c2cc(-c3ccccc3)c(OC(C)C)c(-c3ccccc3)c2)CC1 [Example 60, 1-Ethyl-4-(3,5-diphenyl-4-isopropxy)phenylpiperazine]	> 1000 nM	> 1000 nM	> 1000 nM	–
CCN1CCN(c2ccc(OC(C)C)c(-c3ccccc3)c2)CC1 [Example 61, 1-Ethyl-4-(3-phenyl-4-isopropxy)phenylpiperazine]	> 1000 nM	> 1000 nM	> 1000 nM	–
CCN1CCN(c2ccc(O)c(-c3ccccc3)c2)CC1 [Example 62, 1-Ethyl-4-(3-phenyl-4-hydroxy)phenylpiperazine]	> 1000 nM	> 1000 nM	> 1000 nM	–
CCN1CCN(c2cc(CCCO)cc(-c3ccccc3)c2OC)CC1 [Example 63, 1-Ethyl-4-[2-methoxy-3-phenyl-5-(3-hydroxypropyl)]phenylpiperazine]	> 1000 nM	> 1000 nM	703 nM	–
COc1c(-c2ccccc2)cc(N2CCN(CCO)CC2)cc1-c1ccccc1 [Example 64]	384 nM	459 nM	284 nM	–
